US12661365B2, “Use of cannabidiol in the treatment of epilepsy” (priority 2020, dated 2026)

What was measured:
serum ALT = assay: Liver safety in the Phase 1 trial: serum liver chemistries (peak ALT versus ULN); format: in vivo, human
Excerpt: Clinical laboratory measurements of liver injury and function, the Upper Limit of Normal (ULN) values used are: 68 international units [IU]/L for ALT, 45 IU/L for aspartate aminotransferase (AST), 129 IU/L for alkaline phosphatase (ALP), 29 μmol/L for total bilirubin (TBL), and 59 IU/L for gamma-glutamyl transferase (GGT).
Drug induced liver injury (DILI) is when serum ALT exceeds 5×ULN.
In the above-outlined Phase 1 trial, abnormal liver chemistries were found for the subjects. This was unexpected as subjects were healthy adults receiving therapeutic equivalent doses of CBD used to treat Dravet Syndrome and Lennox-Gastaut Syndrome (1500 mg/day).
Measurements were performed at screening, on trial Days −1, 12, 18, 23, 27, and at follow-up.

[1] = Phase 1 open-label drug-drug interaction trial: effect of repeated-dose CBD on the pharmacokinetics of a single dose of caffeine (plasma caffeine and paraxanthine, LC-MS/MS); format: in vivo, human; settings: trough samples Days 23, 25 and 26, 750 mg CBD b.i.d., before coadministration on Day 26
Excerpt: The duration of the trial was approximately 10 weeks, which includes a screening period (up to 4 weeks), a treatment period (4 weeks) and a safety follow-up period (2 weeks). After signing the informed consent form (ICF), participants entered the screening period (Day −28 to −1). […] The subjects were resident in the CRU for 2 periods. […] They were discharged on Day 3 after completion of the assessments. On Day 3, the first dose of CBD was taken in the morning in the CRU, and on this day, the escalating doses of CBD were dispensed to subjects to be taken at home from Day 4 to Day 12. After discharge on Day 3, the subjects returned to the CRU for ambulatory visits on Days 12, 18, and 23. At these ambulatory visits, the maintenance doses of CBD were dispensed to subjects to be taken at home from Day 13 to Day 25 (the evening dose of Day 25 was taken in the CRU). The subjects were admitted again to the CRU in the afternoon of Day 25. […] The subjects were discharged on Day 28 after completion of the assessments. […]
Plasma concentration of CBD determined on the following days: 23, 25, and 26. These were determined using liquid chromatography and tandem mass spectrometry. […]

[2] = healthy adults, CBD 1500 mg/day
[3] = healthy adults, CBD 1500 mg/day, 16 participants, ALT ULN 68 IU/L

C=C(C)[C@@H]1CCC(C)=C[C@H]1c1c(O)cc(CCCCC)cc1O [CBD, Cannabidiol]
rate of abnormal liver chemistries in healthy volunteers (serum ALT; CBD at the doses used in this study): 44%
exposure time at which all ALT elevations occurred (serum ALT; exposure to cannabidiol): 2-4 weeks
participants with peak ALT >5×ULN (international consensus criteria for DILI) (serum ALT; [2]): 5 (31%) participants
participants with peak serum ALT >2×ULN (serum ALT; [2]): 6 (38%) participants
participants with peak serum ALT ≥2 × ULN (serum ALT; [3]): 6 (38%)
participants with peak serum ALT ≥3 × ULN (serum ALT; [3]): 5 (31%)
participants with peak serum ALT ≥5 × ULN (serum ALT; [3]): 5 (31%)
participants with peak serum ALT ≥10 × ULN (serum ALT; [3]): 0 (0)
participants with peak serum ALT ≥20 × ULN (serum ALT; [3]): 0 (0)
participants with peak serum ALT >ULN (serum ALT; healthy adults, CBD up to 750 mg b.i.d. (1500 mg/day), 16 participants, ALT ULN 68 IU/L): 7 (44%)
trial days between which all ALT elevations occurred (serum ALT; trial day): 18 to 27 days
trough plasma levels of CBD [1]: reached steady state
